Earlier results as cited in publication PMC9516332 (Frontiers in Oncology, 2022).
Read-outs that look alike come from different tables or passages of the source.

Columns and labels:
[1] = target: panel of 255 wild-type kinases (Homo sapiens, UniProt P45983); conditions: cited from earlier work
[2] = target: panel of 255 wild-type kinases (Homo sapiens, UniProt P54764); conditions: kinase EPHA4, 1 µmol/L single concentration, cited from earlier work
[3] = target: panel of 255 wild-type kinases (Homo sapiens, UniProt P48730); conditions: kinase CK1δ, 1 µmol/L single concentration, cited from earlier work
[4] = target: T1, panel of 255 wild-type kinases (Homo sapiens, UniProt O14920); conditions: kinase IKKβ, 1 µmol/L single concentration, cited from earlier work
T1 sequence (O14920 1-756): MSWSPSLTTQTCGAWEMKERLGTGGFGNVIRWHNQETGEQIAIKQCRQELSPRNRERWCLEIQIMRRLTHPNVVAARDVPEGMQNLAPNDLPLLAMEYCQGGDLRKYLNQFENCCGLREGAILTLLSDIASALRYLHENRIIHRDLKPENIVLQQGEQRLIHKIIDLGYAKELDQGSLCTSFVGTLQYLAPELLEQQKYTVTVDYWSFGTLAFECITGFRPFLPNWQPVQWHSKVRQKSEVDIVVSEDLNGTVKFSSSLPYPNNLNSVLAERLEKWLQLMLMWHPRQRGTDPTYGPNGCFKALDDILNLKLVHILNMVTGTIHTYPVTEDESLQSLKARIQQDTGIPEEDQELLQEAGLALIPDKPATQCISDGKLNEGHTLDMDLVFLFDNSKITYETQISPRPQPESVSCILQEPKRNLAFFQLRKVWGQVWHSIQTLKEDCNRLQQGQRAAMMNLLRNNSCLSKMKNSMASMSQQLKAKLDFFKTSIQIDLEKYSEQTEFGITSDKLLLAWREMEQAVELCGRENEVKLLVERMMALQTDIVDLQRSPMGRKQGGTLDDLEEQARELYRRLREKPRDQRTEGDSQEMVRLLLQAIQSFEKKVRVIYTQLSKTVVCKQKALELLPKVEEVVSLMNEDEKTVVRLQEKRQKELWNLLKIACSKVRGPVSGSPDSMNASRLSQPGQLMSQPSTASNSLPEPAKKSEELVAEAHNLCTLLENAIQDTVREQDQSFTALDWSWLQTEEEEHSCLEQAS

[5] = target: panel of 255 wild-type kinases (Homo sapiens, UniProt Q9Y2H1); conditions: NDR2, 1 µmol/L single concentration, cited from earlier work
[6] = target: panel of 255 wild-type kinases (Homo sapiens, UniProt Q9BUB5); conditions: MNK1, 1 µmol/L single concentration, cited from earlier work
[7] = target: T2, panel of 255 wild-type kinases (Homo sapiens, UniProt O15530); conditions: kinase PDK1, 1 µmol/L single concentration, cited from earlier work
T2 sequence (O15530 1-556): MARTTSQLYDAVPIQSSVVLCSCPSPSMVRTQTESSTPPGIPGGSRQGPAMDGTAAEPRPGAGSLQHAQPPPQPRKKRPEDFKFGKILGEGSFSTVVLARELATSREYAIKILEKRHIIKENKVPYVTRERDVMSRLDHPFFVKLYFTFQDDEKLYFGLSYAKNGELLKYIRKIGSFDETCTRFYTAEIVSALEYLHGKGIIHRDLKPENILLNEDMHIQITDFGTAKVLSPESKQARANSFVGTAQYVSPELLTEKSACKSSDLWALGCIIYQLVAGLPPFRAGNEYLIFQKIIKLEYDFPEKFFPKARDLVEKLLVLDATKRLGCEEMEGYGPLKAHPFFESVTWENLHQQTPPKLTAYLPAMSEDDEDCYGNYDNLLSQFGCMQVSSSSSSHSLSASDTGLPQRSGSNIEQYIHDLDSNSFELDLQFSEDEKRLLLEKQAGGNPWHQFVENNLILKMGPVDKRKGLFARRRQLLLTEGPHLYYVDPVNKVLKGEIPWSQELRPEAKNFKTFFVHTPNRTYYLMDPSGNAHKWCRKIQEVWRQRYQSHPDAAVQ

[8] = target: panel of 255 wild-type kinases (Homo sapiens, UniProt P28482); conditions: kinase Erk2, 1 µmol/L single concentration, cited from earlier work
[9] = target: T3, panel of 255 wild-type kinases (Homo sapiens, UniProt P42681); conditions: kinase TXK, 1 µmol/L single concentration, cited from earlier work
T3 sequence (P42681 1-527): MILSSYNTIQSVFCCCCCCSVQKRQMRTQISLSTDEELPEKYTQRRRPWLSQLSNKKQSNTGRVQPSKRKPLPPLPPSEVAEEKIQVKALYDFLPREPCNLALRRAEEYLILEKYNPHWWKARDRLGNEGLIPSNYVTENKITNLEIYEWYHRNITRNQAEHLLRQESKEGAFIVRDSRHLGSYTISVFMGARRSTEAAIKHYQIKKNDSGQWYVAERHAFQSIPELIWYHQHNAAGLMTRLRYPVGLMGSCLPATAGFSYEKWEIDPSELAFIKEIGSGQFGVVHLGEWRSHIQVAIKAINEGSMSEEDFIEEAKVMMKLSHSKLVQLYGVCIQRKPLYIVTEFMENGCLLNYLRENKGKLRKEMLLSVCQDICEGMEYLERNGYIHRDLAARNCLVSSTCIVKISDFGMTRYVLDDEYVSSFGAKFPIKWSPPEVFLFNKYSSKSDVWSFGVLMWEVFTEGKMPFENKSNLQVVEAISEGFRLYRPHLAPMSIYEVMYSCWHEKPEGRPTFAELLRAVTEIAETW

[10] = ref DOI: 10.1158/1535-7163.MCT-18-0877
[11] = ref DOI: 10.1371/journal.pone.0092146

| SMILES | %-inhibition at 1 µmol/L, JNK1 ([1]; kinase JNK1, 1 µmol/L single concentration, ref DOI: 10.1158/1535-7163.MCT-18-0877) [%] | %-inhibition at 1 µmol/L, EPHA4 [2, 10] [%] | %-inhibition at 1 µmol/L, CK1δ [3, 10] [%] | %-inhibition at 1 µmol/L, IKKβ [4, 10] [%] | %-inhibition, NDR2 [5, 10] [%] | %-inhibition, MNK1 [6, 10] [%] | %-inhibition at 1 µmol/L, PDK1 [7, 10] [%] | %-inhibition at 1 µmol/L, Erk2 [8, 10] [%] | %-inhibition at 1 µmol/L, TXK [9, 10] [%] | %-inhibition at 1 µmol/L, JNK1 ([1]; kinase JNK1, 1 µmol/L single concentration, ref DOI: 10.1371/journal.pone.0092146) [%] | %-inhibition at 1 µmol/L, EPHA4 [2, 11] [%] | %-inhibition at 1 µmol/L, CK1δ [3, 11] [%] | %-inhibition at 1 µmol/L, IKKβ [4, 11] [%] | %-inhibition, NDR2 [5, 11] [%] | %-inhibition, MNK1 [6, 11] [%] | %-inhibition at 1 µmol/L, PDK1 [7, 11] [%] | %-inhibition at 1 µmol/L, Erk2 [8, 11] [%] | %-inhibition at 1 µmol/L, TXK [9, 11] [%] | %-inhibition at 1 µmol/L, JNK1 [1] [%] |
| --- | --- | --- | --- | --- | --- | --- | --- | --- | --- | --- | --- | --- | --- | --- | --- | --- | --- | --- | --- |
| C=CC(=O)Nc1cc(Nc2nccc(-c3cn(C)c4ccccc34)n2)c(OC)cc1N(C)CCN(C)C [osimertinib] | -2.12 | 3.54 | 7.49 | -1.32 | 10 | 99 | 0.0271 | -10 | 82 |  |  |  |  |  |  |  |  |  |  |
| CC(=O)Nc1cccc(-n2c(=O)n(C3CC3)c(=O)c3c(Nc4ccc(I)cc4F)n(C)c(=O)c(C)c32)c1 [trametinib] |  |  |  |  |  |  |  |  |  | -4.68 | -5.3 | 0.365 | 0.741 | -1.48 | -3 | -5.52 | -5 | -4.66 |  |
| CCCS(=O)(=O)Nc1ccc(F)c(C(=O)c2c[nH]c3ncc(-c4ccc(Cl)cc4)cc23)c1F [vemurafenib] |  |  |  |  |  |  |  |  |  |  | -2 | -3 | -3.31 | -2.51 | 23 | -4 | -4.58 | 5 | 1.47 |
